Experimental findings from ChEMBL document CHEMBL1697731, “Cheminformatics analysis of assertions mined from literature that describe drug-induced liver injury in different species” (Chem Res Toxicol, 2010) are described below.

In data set [1] the test system is Hepatotoxicity. The data set can be described thus: Literature-mined compound from Fourches et al multi-species drug-induced liver injury (DILI) dataset, effect in humans. Conditions: human.
The test system of data set [2] is Hepatotoxicity. The data set can be described thus: Literature-mined compound from Fourches et al multi-species drug-induced liver injury (DILI) dataset, effect in rodents. Conditions: rodentia.
For data set [3], the system named is Hepatotoxicity. Kind of data set: Literature-mined compound from Fourches et al multi-species drug-induced liver injury (DILI) dataset, effect in non-rodents.

Molecules are shown by their SMILES.

With `CC(=O)Nc1c(I)c(NC(C)=O)c(I)c(C(=O)[O-])c1I.[Na+]` [DIATRIZOATE SODIUM], the Hepatotoxicity entry in the data set with Hepatotoxicity [1] is on record as “no drug-induced liver injury reported”; with Hepatotoxicity [2], “drug-induced liver injury reported”; in the data set with Hepatotoxicity [3] it was “no drug-induced liver injury reported”.

Turning to `CN1C(=O)CN=C(c2ccccc2)c2cc(Cl)ccc21` [DIAZEPAM], the Hepatotoxicity result in the data set on Hepatotoxicity [1] (Liver), in the data set with Hepatotoxicity [2] (Liver) and in the data set on Hepatotoxicity [3] (Liver) was “drug-induced liver injury reported” each time.

For `CC1=NS(=O)(=O)c2cc(Cl)ccc2N1` [DIAZOXIDE], the Hepatotoxicity result with Hepatotoxicity [1] was “drug-induced liver injury reported”; with Hepatotoxicity [2] it was “drug-induced liver injury reported”; in the data set with Hepatotoxicity [3] it was “no drug-induced liver injury reported”.

As to `O=c1oc2ccccc2c(O)c1Cc1c(O)c2ccccc2oc1=O` [DICUMAROL], the Hepatotoxicity entry with Hepatotoxicity [1] is on record as “drug-induced liver injury reported”; in the data set with Hepatotoxicity [2] it was “drug-induced liver injury reported”; with Hepatotoxicity [3] it was “no drug-induced liver injury reported”.

As for `O=c1[nH]cnc2c1ncn2[C@H]1CC[C@@H](CO)O1` [DIDANOSINE], the values for the Hepatotoxicity result in the data set with Hepatotoxicity [1], in the data set on Hepatotoxicity [2] and with Hepatotoxicity [3] were “drug-induced liver injury reported”, “drug-induced liver injury reported” and “no drug-induced liver injury reported”, respectively.

Turning to `C[C@]12CCC3=C4CCC(=O)C=C4CC[C@H]3[C@@H]1CC[C@@]2(O)CC#N` [DIENOGEST], the values for the Hepatotoxicity entry in the data set with Hepatotoxicity [1], with Hepatotoxicity [2] and in the data set on Hepatotoxicity [3] were “no drug-induced liver injury reported”, “drug-induced liver injury reported” and “no drug-induced liver injury reported”, respectively.

Turning to `CC/C(=C(/CC)c1ccc(O)cc1)c1ccc(O)cc1` [DIETHYLSTILBESTROL], the Hepatotoxicity entry with Hepatotoxicity [1], with Hepatotoxicity [2] and in the data set with Hepatotoxicity [3] was “drug-induced liver injury reported” in each case.

In the case of `CCN(CC)C(=O)c1cccc(C)c1` [DIETHYLTOLUAMIDE], the Hepatotoxicity result in the data set on Hepatotoxicity [1] is “no drug-induced liver injury reported”; in the data set with Hepatotoxicity [2] it was “drug-induced liver injury reported”; with Hepatotoxicity [3] it was “no drug-induced liver injury reported”.

Take `O=C(O)c1cc(-c2ccc(F)cc2F)ccc1O` [DIFLUNISAL]: the Hepatotoxicity entry in the data set on Hepatotoxicity [1] (Liver), with Hepatotoxicity [2] (Liver) and in the data set on Hepatotoxicity [3] (Liver) was “drug-induced liver injury reported” throughout.

Regarding `C[C@H]1O[C@@H](O[C@H]2[C@@H](O)C[C@H](O[C@H]3[C@@H](O)C[C@H](O[C@H]4CC[C@@]5(C)[C@H](CC[C@@H]6[C@@H]5CC[C@]5(C)[C@@H](C7=CC(=O)OC7)CC[C@]65O)C4)O[C@@H]3C)O[C@@H]2C)C[C@H](O)[C@@H]1O` [DIGITOXIN], the Hepatotoxicity result in the data set with Hepatotoxicity [1] is on record as “no drug-induced liver injury reported”; in the data set on Hepatotoxicity [2], “drug-induced liver injury reported”; with Hepatotoxicity [3], “no drug-induced liver injury reported”.

For the molecule `C[C@H]1O[C@@H](O[C@H]2[C@@H](O)C[C@H](O[C@H]3[C@@H](O)C[C@H](O[C@H]4CC[C@@]5(C)[C@H](CC[C@@H]6[C@@H]5C[C@@H](O)[C@]5(C)[C@@H](C7=CC(=O)OC7)CC[C@]65O)C4)O[C@@H]3C)O[C@@H]2C)C[C@H](O)[C@@H]1O` [DIGOXIN], the Hepatotoxicity entry in the data set on Hepatotoxicity [1] is “no drug-induced liver injury reported”; in the data set on Hepatotoxicity [2] it was “drug-induced liver injury reported”; with Hepatotoxicity [3], “drug-induced liver injury reported”.

Regarding `NNc1nnc(NN)c2ccccc12` [DIHYDRALAZINE], the Hepatotoxicity entry in the data set with Hepatotoxicity [1] was “drug-induced liver injury reported”; in the data set on Hepatotoxicity [2], “drug-induced liver injury reported”; in the data set on Hepatotoxicity [3], “no drug-induced liver injury reported”.

For the molecule `CN1C[C@H](C(=O)N[C@]2(C)O[C@@]3(O)[C@@H]4CCCN4C(=O)[C@H](Cc4ccccc4)N3C2=O)C[C@@H]2c3cccc4[nH]cc(c34)C[C@H]21` [DIHYDROERGOTAMINE], the Hepatotoxicity entry in the data set on Hepatotoxicity [1] was “drug-induced liver injury reported”; with Hepatotoxicity [2], “drug-induced liver injury reported”; in the data set with Hepatotoxicity [3], “no drug-induced liver injury reported”.

As for `COc1ccc([C@@H]2Sc3ccccc3N(CCN(C)C)C(=O)[C@@H]2OC(C)=O)cc1` [DILTIAZEM], the Hepatotoxicity entry in the data set on Hepatotoxicity [1], in the data set on Hepatotoxicity [2] and with Hepatotoxicity [3] was “drug-induced liver injury reported” in each case.

As to `C[S+](C)[O-]` [DIMETHYL SULFOXIDE], the Hepatotoxicity entry in the data set on Hepatotoxicity [1], in the data set on Hepatotoxicity [2] and in the data set on Hepatotoxicity [3] was “drug-induced liver injury reported” throughout.

As to `CCCCC[C@H](O)/C=C/[C@H]1[C@H](O)CC(=O)[C@@H]1C/C=C\CCCC(=O)O` [DINOPROSTONE], the Hepatotoxicity entry is reported as “drug-induced liver injury reported” in the data set with Hepatotoxicity [1], “drug-induced liver injury reported” in the data set on Hepatotoxicity [2] and “no drug-induced liver injury reported” with Hepatotoxicity [3].

Take `CCCCC[C@H](O)/C=C/[C@@H]1[C@@H](C/C=C\CCCC(=O)O)[C@@H](O)C[C@H]1O` [DINOPROST]: the Hepatotoxicity result in the data set with Hepatotoxicity [1], with Hepatotoxicity [2] and with Hepatotoxicity [3] was “drug-induced liver injury reported” throughout.

As for `COc1ccc(-c2cc(=O)c3c(O)cc(O[C@@H]4O[C@H](CO[C@@H]5O[C@@H](C)[C@H](O)[C@@H](O)[C@H]5O)[C@@H](O)[C@H](O)[C@H]4O)cc3o2)cc1O` [DIOSMIN], the Hepatotoxicity result in the data set on Hepatotoxicity [1] was “no drug-induced liver injury reported”; in the data set on Hepatotoxicity [2], “drug-induced liver injury reported”; in the data set on Hepatotoxicity [3], “no drug-induced liver injury reported”.

With `CN(C)CCOC(c1ccccc1)c1ccccc1` [DIPHENHYDRAMINE], the Hepatotoxicity entry in the data set with Hepatotoxicity [1] (Liver) was “no drug-induced liver injury reported”; in the data set on Hepatotoxicity [2] (Liver), “drug-induced liver injury reported”; with Hepatotoxicity [3] (Liver), “no drug-induced liver injury reported”.

Turning to `Cc1c(N(C)CS(=O)(=O)[O-])c(=O)n(-c2ccccc2)n1C.[Na+]` [DIPYRONE SODIUM], the Hepatotoxicity result is “drug-induced liver injury reported” in the data set with Hepatotoxicity [1], “drug-induced liver injury reported” in the data set on Hepatotoxicity [2] and “no drug-induced liver injury reported” with Hepatotoxicity [3].

On to `C=C/C=C\[C@H](C)[C@H](OC(N)=O)[C@@H](C)[C@H](O)[C@@H](C)C/C(C)=C\[C@H](C)[C@@H](O)[C@@H](C)/C=C\[C@@H](O)C[C@@H]1OC(=O)[C@H](C)[C@@H](O)[C@H]1C` [DISERMOLIDE], for which the Hepatotoxicity entry in the data set with Hepatotoxicity [1] is on record as “drug-induced liver injury reported”; in the data set on Hepatotoxicity [2], “no drug-induced liver injury reported”; in the data set on Hepatotoxicity [3], “no drug-induced liver injury reported”.

Take `CC(C)N(CCC(C(N)=O)(c1ccccc1)c1ccccn1)C(C)C` (stereo unspecified) [DISOPYRAMIDE]: the figures for the Hepatotoxicity entry in the data set with Hepatotoxicity [1], in the data set with Hepatotoxicity [2] and with Hepatotoxicity [3] were “drug-induced liver injury reported”, “no drug-induced liver injury reported” and “no drug-induced liver injury reported”, respectively.
